Data on six molecules can be found in publication PMC8754131 (Microbiology Spectrum, 2022).

No end group written: not given here.

The test system of one assay is bacteria. Particulars: cited from earlier work.
The nature of the next assay: H&E lung pathology. It is filed as in vivo, rat. Conditions: MRSA-induced pneumonic rats.
The next assay concerns MRSA. The assay is described as follows: bacterial clearance in lung lavage fluid of rats with MRSA-induced pneumonia. It is filed as in vivo, rat. Conditions: HNP-1 0.1 ml of 20 μg/ml (2 μg); penicillin 12 μg/ml; intratracheal spray once daily for 3 days.
Assay [1] deals with RecA. Particulars: real-time RT-PCR, mRNA normalized to 16s. For orientation: In qPCR the cycle at which signal appears reflects the starting amount.
Experimental: (F) Quantification of RecA mRNA in MRSA by real-time RT-PCR.
Analysis of gene expression by real-time RT-PCR. mRNA from RecA and
LexA was measured by real-time PCR (RT-PCR). XPX-1 cells harvested 3 h after
induction and the total RNA was extracted with the TRIzol® Reagent (Thermo
Fisher Scientific, Waltham, MA, USA) according to the manufacturer’s instruction.
Reversed transcription was performed with the ReverTra Ace qPCR RT Kit
(TOYOBO, Osaka, Japan). The primer sequence of RecA and LexA was as follows:
RecA (forward 5’-[sequence]-3’, reverse
5’-[sequence]-3’); LexA (forward
5’-[sequence]-3 ’ , reverse 5 ’
-[sequence]-3’ ). The relative expression level of RecA and
LexA was normalized to 16s by using the 2- CT method(11).
In assay [2] the test system is RecA. Nature of the assay: RecA mRNA by real-time RT-PCR in MRPA. Particulars: mRNA normalized to 16s. Format: cell-based.
A further assay relates to E. coli strain XPX-1. The assay is described as follows: growth and viable count of E. coli XPX-1 after IPTG-induced expression. It is filed as cell-based. Particulars: XPX-1, 1 mM IPTG, Luria-Bertani medium, 37°C.
Another assay deals with E. coli. Nature of the assay: growth curve of E. coli treated with purified recombinant peptides. Format: cell-based. Conditions: 20 μg/ml; compared with regular growth medium without IPTG induction.
Assay [3] concerns RecA. The method, then:
The inclusion bodies were solubilized in denaturing solution (20 mM Tris, 8 M urea, 20 mM DTT, pH 8.5) at a ratio of 1:20 (grams of inclusion body wet weight: mL of volume) and the suspension was shaken gently for 4 h at room temperature.
After centrifugation at 12,000 ×g for 15 min, the supernatant was diluted directly into refolding buffer (20 mM Tris,1 mM cystine, 3 mM cysteine, 2 M urea, pH 10.0).
After refolding at 4°C overnight, the sample pH was adjusted to 4.5 and the sample was centrifuged at 4,000 ×g for 20 min.
The solubilized protein samples were loaded onto a pre-equilibrated HiTrap Chelating HP (5 mL, GE Healthcare, Chicago, IL, USA) ata flow rate of 10 mL/min inbuffer A (20 mM Tris, 2 M NaCl, pH 7.5). […] The purified preproHNP-1 was quantified with BCA according to standard procedures. […]
imidazole) and analyzed by a 12% Tris-Tricine gel followed by Coomassie brilliant blue G-250 staining. […]
Proteomics analysis. […] After in-gel digestion by trypsin, the samples were analyzed by LC-MS/MS using a homemade column (75 μm internal diameter ×15 cm long) packed with 3 μm C18 reverse phase beads (Michrom Bioresources, Inc., Auburn, CA, USA), a 60 min gradient was performed on an LTQ-Orbitrap Velos mass spectrometer (Thermo Fisher Scientific, San Jose, CA, USA). […]

Experimental for E. coli strain XPX-1: XPX-1 cells were grown to an approximate optical density (OD600) of 0.4 in 20 ml of Luria−Bertani medium containing kanamycin (50 μg/ml) at 37°C, and then IPTG was added at a final concentration of 1 mM to induce the expression of preproHNP-1.
(B) Growth curves of E. coli strain XPX-1 containing pET-28a(+)-preproHNP-1 with (+IPTG) or without (−IPTG) 1 mM IPTG induction. […] Data were analyzed using a two-tailed Student's t test and plotted as the mean ± SD for each condition. **, P < 0.01.
The induction time points of IPTG are labeled as indicated. […] The induction time points of IPTG are labeled as indicated. (D) Bacterial colony count after IPTG induction. The induction time points are labeled as indicated. The number of viable cells were counted after growing for 16 h on plates containing Luria-Bertani broth media. […] The growth curve of E. coli strain XPX-1 with 1 mM IPTG induction as a positive control and XPX-1 without IPTG induction as a negative control. […] Data were analyzed using a two-tailed Student's t test and are plotted as the mean ± SD for each condition. *, P < 0.05 and **, P < 0.01.
E. coli strains and plasmids.
After verifying the sequence, the vectors were transformed into E. coli BL21 (DE3) competent cells to obtain XPX-1, which was used to express the recombinant protein preproHNP-1. […]
Experimental for H&E lung pathology: (C) Pathological evaluation via H&E staining in pneumonic model rats. […] Data were analyzed using a two-tailed Student's t test and are plotted as the mean ± SD for each condition. n = 3; *, P < 0.05; and **, P < 0.01.
(§1) MRSA and MRPA were isolated from the Affiliated Hospital of Xuzhou Medical University (Jiangsu, China) and obtained from Professor Shengqi Wang (Xuzhou Medical University, Jiangsu, China). Bacterial pneumonia rats were prepared by spraying MRSA suspensions into the lungs via the trachea with a long soft plastic tube, as described in our previous research ([30]). The rats were inoculated using tracheal intubation with 0.2 ml of 10^8 CFU/ml MRSA suspensions. After 8 h, the rats were given medication. […] All of the medicines were sprayed into the rat lungs through the trachea using an intratracheal MicroSprayer Aerosolizer (IA-1B; PennCentury Inc., Wyndmoor, PA, USA) once daily for 3 days without anesthesia.
Preparation of pneumonic model rats and medicine administration. The
(§2) clinically isolated bacterial strain MRSA was cultivated in LB medium at 37 °C with
(§3) continuous shaking (200 rpm) overnight. Then, the concentration of MRSA was
(§4) determined by the optical density (OD) at 600 nm based on the turbidity of the cell
suspension. Subsequently, the bacterial suspension was diluted with LB medium, and
a final density of 10^8 CFU/mL was obtained for animal testing. Male […]
Experimental for MRSA: (B) Comparison of the bacterial counts in the different treatment groups. The number of MRSA isolated from lung lavage fluid were counted on the agar-containing culture plates followed by culturing for 36 h at 37°C. […] Data were analyzed using a two-tailed Student's t test and are plotted as the mean ± SD for each condition. n = 3; *, P < 0.05; and **, P < 0.01.
as §1
Preparation of pneumonic model rats and medicine administration.
as §2, §3, §4
suspension. […]

In the case of “HNP-2: antimicrobial peptide cited for filamentation (CYCRIPACIAGERRYGTCIYQGRLWAFCC; ends and bridges not checked; cysteine pairing not given here; UniProt P59665 66-94, looked up)”, the AMP-induced filamentation entry in the assay on bacteria is listed as “filamentation has also been described”.

On to PR-39, for which the AMP-induced filamentation entry in the assay with bacteria is “filamentation has also been described”.

Take “indolicidin (ILPWKWPWWPWRR; ends and bridges not checked; UniProt P33046 131-143, looked up) [antimicrobial peptide cited for filamentation]”: the AMP-induced filamentation result with bacteria is “filamentation has also been described”.

For the molecule penicillin, the “exudation, inflammation, hemorrhage (H&E)” value in “H&E lung pathology” is “alleviated these symptoms to a certain degree”. The bacterial clearance effect entry in the assay on MRSA is reported as “neither HNP-1 nor penicillin treatment had any effect”. Further, the “RecA expression in MRSA” value in the assay on RecA [1] was “increased significantly”. Also, in the assay with RecA [2], the “RecA expression in MRPA” value was “increased significantly”.

B1: preproHNP-1: full-length precursor of HNP-1 tagged with six histidine residues, cloned into pET-28a(+), expressed in E. coli XPX-1 (protein, UniProt P59665 1-94, looked up)
chain: MRTLAILAAILLVALQAQAEPLQARADEVAAAPEQIAADIPEVVVSLAWDESLAPKHPGSRKNMACYCRIPACIAGERRYGTCIYQGRLWAFCC
modifications: full-length His6 tag
Take B1: the “OD600 reached after induction” value in the assay with E. coli strain XPX-1 is on record as ~1. Moreover, the “growth curve of E. coli in medium with purified protein” value in the assay with E. coli was “did not differ from those cultured in regular growth medium without IPTG induction”. The “interaction with RecA” value in the assay on RecA [3] (anti-RecA co-immunoprecipitation) was “HNP-1, but not full length 6x His-tagged preproHNP-1, interacted with RecA”. Also, in the assay with RecA [3] (anti-RecA immunoprecipitation, Western blot with anti-HNP-1), the “co-precipitation with RecA over induction time” value is on record as “decreased with time”.

B2: HNP-5: antimicrobial peptide cited for filamentation (peptide, UniProt Q01523 20-94, looked up)
Defensin alpha 5: ESLQERADEATTQKQSGEDNQDLAISFAGNGLSALRTSGSQARATCYCRTGRCATRESLSGVCEISGRLYRLCCR
modifications: Defensin-5
notes: antimicrobial peptide cited for filamentation
Regarding B2, the AMP-induced filamentation result in the assay on bacteria was “filamentation has also been described”.
